Results on 18 compounds are retold here after patent US10239829B2, “Antagonists of the glucagon receptor” (Metabasis Therapeutics, Inc., priority 2007, dated 2019).

The test system of one assay is db/db mice. Description: Glucose lowering in db/db mice. To be noted: freely-feeding; for inhibition in vivo at 30 mg/kg / inhibition in vivo at 100 mg/kg: Mus musculus, oral gavage, 100% = normalization to lean db/+ mice; for Glucose lowering: vs vehicle-treated db/db mice. Format: in vivo, mouse. Here is the method: Purpose: To assess the effects of compounds of the invention on blood glucose levels in the db/db mouse, an animal model of type 2 diabetes.
Methods: Compounds were dissolved in polyethylene glycol-400 and administered by oral gavage to db/db mice in the freely-feeding state at doses of 30 and/or 100 mg/kg. Blood glucose levels were assessed in blood samples obtained by tail bleed at baseline (prior to drug administration) and at regular time intervals over 24 hours using a portable glucometer such as the OneTouch or HemoCue meters. The magnitude of blood glucose lowering elicited by the compounds of the invention was determined by comparison to those in db/db mice administered only the vehicle. The percentage glucose lowering was calculated by factoring in the blood glucose levels of vehicle-treated lean db/+(heterozygote) mice, with 100% representing the normalization of blood glucose levels from the hyperglycemic state (vehicle-treated db/db mice) to the normoglycemic state (vehicle-treated db/+ mice).

Assay [1] deals with glucagon-challenged Beagle dogs. The assay is described as follows: Glucose lowering in glucagon-challenged Beagle dogs. Format: in vivo, dog. To be noted: Beagle dogs (n=3), oral gavage 38 mg/kg in PEG-400, glucagon 20 μg s.c. after 1.5 hours. How it is done:
Purpose: To assess the effects of compounds of the invention on blood glucose levels in glucagon-challenged Beagle dogs.
Methods: Beagle dogs (n=3) were treated with vehicle (polyethylenelglycol-400) by oral gavage. After 1.5 hours, glucagon (20 μg) was administered subcutaneously. Blood glucose levels were measured prior to glucagon administration and at 10-minute intervals thereafter for up to an hour. Blood samples for these determinations were obtained from a superficial ear vein and were measured using a OneTouch glucometer. After a 1-week washout, the animals were treated by oral gavage with the compound of Example 2.009 at a dose of 38 mg/kg (polyethylenelglycol-400 formulation). The glucagon challenge and blood sampling were then performed as before.

Setting [2] is: oral gavage in PEG-400, dose 30 mg/Kg.
Setting [3] is: oral gavage in PEG-400, dose 100 mg/Kg.

Usually inhibition in vivo stands for the drop in the measured response relative to a control, in per cent. With `O=C(NCCS(=O)(=O)O)c1ccc(CC(C(=O)Nc2ccc(-c3cc4ccccc4o3)cc2Cl)c2ccc(OC(F)(F)F)cc2)cc1` (centres unmarked) [Example 1.155], in the assay with db/db mice, the inhibition in vivo at 30 mg/kg was 49%. In the assay with db/db mice (setting [2]), the “Glucose lowering” value is listed as 108 mg/dL. On the same counts, the results for `CC(C)(C)/C=C/c1ccc(C(Cc2ccc(C(=O)NCCS(=O)(=O)O)cc2)C(=O)Nc2ccc(C3=Cc4ccccc4C3)cc2)cc1` (centres unmarked) [Example 1.321] are 68% and 161 mg/dL. The matching figures for `CCC(c1ccc(C(=O)NCCS(=O)(=O)O)cc1)C(C(=O)Nc1ccc(-c2ccc(Cl)cc2Cl)cc1)c1ccc(/C=C/C(C)(C)C)cc1` (centres unmarked) [Example 1.315]: 57% and 172 mg/dL.

Regarding `CC(C)(C)c1ccc(C(Cc2ccc(C(=O)NCCS(=O)(=O)[O-])cc2)c2cc(-c3cccc(-c4ccc(Cl)cc4)c3)on2)cc1.[Na+]` (centres unmarked) [Example 2.009], in assay [1], the “attenuation of the glucagon-induced glucose excursion” value is “approximately 40%”. `Cc1cc(C(F)(F)F)ccc1-c1ccc(NC(=O)C(Cc2ccc(C(=O)NCCS(=O)(=O)O)cc2)c2ccc(/C=C/C(C)(C)C)cc2)cc1` (centres unmarked) [Example 1.320]: 30 mg/kg produced 39% inhibition in vivo in the assay with db/db mice. For the same compound, in the assay on db/db mice (setting [2]), the “Glucose lowering” value worked out at 121 mg/dL. Regarding `Cc1cc(NC(=O)C(Cc2ccc(C(=O)NCCS(=O)(=O)O)cc2)c2ccc(/C=C/C(C)(C)C)cc2)ccc1-c1ccc(C(F)(F)F)cc1Cl` (centres unmarked) [Example 1.179], 30 mg/kg produced 34% inhibition in vivo with db/db mice. In addition, in the assay with db/db mice (setting [2]), the “Glucose lowering” value is 102 mg/dL. The matching figures for `CC(C)(C)COc1ccc(C(Cc2ccc(C(=O)NCCS(=O)(=O)O)cc2)C(=O)Nc2ccc(-c3ccc(Cl)cc3Cl)cc2)cc1.[Na+]` (centres unmarked) [Example 1.136]: 16% and 47 mg/dL. Take `CC(c1ccc(C(=O)NCCS(=O)(=O)[O-])cc1)C(C(=O)Nc1ccc(-c2ccc(Cl)cc2Cl)cc1)c1ccc(/C=C/C(C)(C)C)cc1.[Na+]` (centres unmarked) [Example 1.137]: the inhibition in vivo at 30 mg/kg with db/db mice is 53%. Further, the “Glucose lowering” value in the assay on db/db mice (setting [2]) stood at 159 mg/dL.

The compound `Cc1cc(C(F)(F)F)ccc1-c1ccc(NC(=O)C(Cc2ccc(C(=O)NCCS(=O)(=O)O)cc2)c2ccc(/C=C/C(C)(C)C)cc2)cc1Cl` (centres unmarked) [Example 1.173] had an inhibition in vivo at 30 mg/kg in the assay with db/db mice of 50%. Also, the “Glucose lowering” value with db/db mice (setting [2]) turned out to be 172 mg/dL. In the case of `CC(C)(C)C1CCC(C(Cc2ccc(C(=O)NCCS(=O)(=O)[O-])cc2)C(=O)Nc2ccc(-c3ccc(Cl)cc3Cl)cc2)CC1.[Na+]` (centres unmarked) [Example 1.138], at 30 mg/kg the inhibition in vivo with db/db mice was 6%. Moreover, the “Glucose lowering” value in the assay on db/db mice (setting [2]) is given as 19 mg/dL. The matching figures for `CC(C)(C)COc1ccc(C(Cc2ccc(C(=O)NCCS(=O)(=O)O)cc2)C(=O)Nc2ccc(-c3ccc(C(F)(F)F)cc3Cl)cc2)cc1` (centres unmarked) [Example 1.314]: 40% and 95 mg/dL.

In the assay on db/db mice, `CC(C)(C)/C=C/c1ccc(C(Cc2ccc(C(=O)NCCS(=O)(=O)[O-])cc2)C(=O)Nc2ccc(-c3ccc(C(F)(F)F)cc3Cl)cc2)cc1.[Na+]` (centres unmarked) [Example 1.135] showed an inhibition in vivo at 100 mg/kg of 41%. For the same compound, in the assay on db/db mice (setting [3]), the “Glucose lowering” value is 131 mg/dL. Turning to `CC(C)(C)/C=C/c1ccc(C(Cc2ccc(C(=O)NCCS(=O)(=O)[O-])cc2)C(=O)Nc2ccc(-c3cc4ccccc4o3)cc2)cc1.[Na+]` (centres unmarked) [Example 1.052], in the assay on db/db mice, testing at 30 mg/kg gave an inhibition in vivo of 61%. For the same compound, the “Glucose lowering” value with db/db mice (setting [2]) is 147 mg/dL. The matching figures for `CC(C)(C)/C=C/c1ccc(C(Cc2ccc(C(=O)NCCS(=O)(=O)[O-])cc2)C(=O)Nc2ccc(-c3ccc(Cl)cc3Cl)cc2)cc1.[Na+]` (centres unmarked) [Example 1.133]: 57% and 157 mg/dL. As to `Cc1cc(Cl)ccc1-c1ccc(NC(=O)C(Cc2ccc(C(=O)NCCS(=O)(=O)O)cc2)c2ccc(/C=C/C(C)(C)C)cc2)cc1Cl` (centres unmarked) [Example 1.359], the inhibition in vivo at 100 mg/kg in the assay on db/db mice amounted to 48%. Moreover, the “Glucose lowering” value with db/db mice (setting [3]) was 150 mg/dL. In the case of `Cc1cc(Cl)ccc1-c1ccc(NC(=O)C(Cc2ccc(C(=O)NCCS(=O)(=O)O)cc2)c2ccc(C3=CCC(C(C)(C)C)CC3)cc2)cc1` (centres unmarked) [Example 1.269], in the assay with db/db mice, the inhibition in vivo at 30 mg/kg is 42%. The “Glucose lowering” value with db/db mice (setting [2]) was found to be 124 mg/dL. The matching figures for `CC(C)(C)C1CC=C(c2ccc(C(Cc3ccc(C(=O)NCCS(=O)(=O)O)cc3)C(=O)Nc3ccc(-c4ccc(C(F)(F)F)cc4Cl)cc3)cc2)CC1` (centres unmarked) [Example 1.270]: 24% and 63 mg/dL. On the same counts, the results for `Cc1cc(NC(=O)C(Cc2ccc(C(=O)NCCS(=O)(=O)O)cc2)c2ccc(OCC(C)(C)C)cc2)ccc1-c1ccc(C(F)(F)F)cc1C` (centres unmarked) [Example 1.311] are 36% and 109 mg/dL.
